“Also recorded” adds a separate entry of the source. Read-outs that look alike come from different tables or passages of the source.
What was measured:
[1] = system: SUM-159 cells with LIPA KO; experiment: UPR induction and protein synthesis in SUM-159 cells with LIPA KO (RNA-seq, RT-qPCR, western); assay type: cell-based, Human; conditions: known ER stress inducers
Description: Western blotting: Whole cell lysates from breast cancer cells were prepared with 2× sample buffer (60 mM Tris-HCl, pH 6.8, 2% sodium dodecyl sulfate, 10% glycerol), and before loading mixed with loading buffer (5% 2-mercaptoethanol, 0.1% bromophenol blue) and boiled for denaturation, as previously described.^33 Proteins were separated by SDS-PAGE and subjected to Western analysis using antibodies. To detect nascent translated proteins, puromycin (final concentration 10 μg/mL) was added into cell plates 30 minutes before harvesting cells. Then samples were subjected to the Western blotting. Nascent proteins were detected by anti-puromycin antibody.
Real-time quantitative PCR (RT-qPCR): Total RNA was prepared from breast cancer cells using the RNeasy Mini Kit (Qiagen) according to the manufacturer protocols. Subsequently, total RNAs were reverse transcribed into cDNA using iScript Reverse Transcription Supermix (Bio-rad) and by using SYBR Green on an Illumina Real-Time PCR system.
RNA-sequencing: mRNA-seq sequencing library construction was performed using TruSeq RNA Library Preparation Kit (Illumina) according to the manufacturer's instructions. FASTQ reads from Genomics Core at UTSW were mapped to Human GRCh38 genome using HiSAT2 (RRID:SCR_015530). Differential expression analysis is performed using DEseq2 (RRID:SCR_015687). Abundances of transcripts are calculated using ballgown (Frazee et al. 2014). The values of Fragments Per Kilobase of transcript per Million mapped reads (FPKM) were used for Gene Set Enrichment Analysis (GSEA). GSEA was performed by using the GSEA software (RRID:SCR_005724) and C5 ontology gene sets (14765 gene sets in total). mRNA-seq data from this study are available from NCBI GEO under accession #GSE168800.

[2] = biological target: T1, ER Alpha-LBD (GST) (Homo sapiens, UniProt P03372); experiment: LanthaScreen TR-FRET ER alpha Coactivator Assay, antagonist mode; assay type: binding; conditions: 2 h incubation
T1 construct: 3.5 nM ER Alpha-LBD (GST); purchased life technologies A15885
T1 sequence (P03372 311-547 limits assumed): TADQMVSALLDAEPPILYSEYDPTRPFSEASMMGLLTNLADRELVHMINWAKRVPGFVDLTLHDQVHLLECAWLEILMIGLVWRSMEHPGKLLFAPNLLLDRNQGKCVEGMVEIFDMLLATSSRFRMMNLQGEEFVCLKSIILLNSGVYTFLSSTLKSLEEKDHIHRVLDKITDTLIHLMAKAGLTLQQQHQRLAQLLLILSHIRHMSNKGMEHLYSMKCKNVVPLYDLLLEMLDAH

[3] = system: TNBC; experiment: ER stress, cell death and lysosomes in TNBC (discussion, no method); assay type: cell-based
[4] = biological target: T2, LAL lipase activity (Homo sapiens, UniProt P38571); experiment: Lipase activity assay (4-MUP), SUM-159 cell lysate; assay type: biochemical
T2 construct: heat stability of LAL or vinculin protein in SUM-159 cells; endogenous in cells; host or cells: SUM-159
T2 sequence (P38571 77-399): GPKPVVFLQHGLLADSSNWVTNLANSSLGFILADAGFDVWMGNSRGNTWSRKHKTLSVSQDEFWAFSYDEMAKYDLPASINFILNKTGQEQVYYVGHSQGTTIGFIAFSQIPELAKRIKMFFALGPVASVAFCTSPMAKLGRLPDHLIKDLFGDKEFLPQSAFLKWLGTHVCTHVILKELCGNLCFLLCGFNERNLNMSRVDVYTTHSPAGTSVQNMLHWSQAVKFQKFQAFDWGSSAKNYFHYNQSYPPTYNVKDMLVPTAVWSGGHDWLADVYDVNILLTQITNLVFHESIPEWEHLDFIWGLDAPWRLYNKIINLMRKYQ
Description: Lipase activity assay: Lipase activity assays were performed as described previously (Dairaku, et al)^37. Briefly, a 0.345 mM substrate solution was prepared from 1.2 mL of 13.3 mM 4-MUP and 42 mL of 100 mM sodium acetate buffer pH 4.0, 1.0% (v/v) Triton X-100 and 3.0 mL of 0.5% (w/v) cardiolipin. For the enzyme reaction, 50 μL of the substrate in buffer solution, 40 μL of diluted cell lysate and 10 μL of DMSO or 30 μM Lalistat2 or 30 μM ERX-41 were combined in a black 96-well plate. The plates were sealed with an adhesive aluminum film and incubated in a 37° C. incubator for 1 h. The reactions were terminated using 200 μL of 150 mM EDTA at pH 11.5. The fluorescence of the plates were read immediately with synergy H1 fluorescence microplate reader (BioTek) using a 365-nm excitation filter and a 450-nm emission filter. The LIPA lipase activity was calculated by subtracting the enzymatic activity of the inhibited (with Lalistat2) reaction from that of the uninhibited (without Lalistat2) reaction.

[5] = system: ERα-positive breast cancer cells (MCF-7, ZR-75); conditions: therapy-sensitive and therapy-resistant ERα-positive breast cancers; inventors' previous work; read-out: IC50, block of ERα signaling and ERα-driven proliferation; cited from earlier work
[6] = system: TNBC cells (SUM-159, MDA-MB-231); experiment: MTT cell viability, TNBC cells; assay type: cell-based, Human
Description: (§1) Cell viability assays: Cells were seeded in 96-well plates (2×10^3 cells/well) one day before the treatment. Cells were treated with varying concentrations of ERX-41 or ERX-11 analogs for 3-6 days. Then effects of ERX-41 or ERX-11 analogs on cell viability were measured in triplicate or sextuplicate with multiple biological replicates using the WST-1 (Promega), MTT as previously described^33 or CellTiter-Glo 2.0 (Promega) assays.

[7] = earlier finding; cited from earlier work
[8] = system: ERα-positive breast cancer cells (MCF-7, ZR-75); experiment: MTT cell viability, ERα-positive breast cancer cells; assay type: cell-based, Human; conditions: MCF-7 and ZR-75, read-out: anti-proliferative IC50
Description: as §1

[9] = system: BC xenografts expressing the Y537S ERα mutant (ZR75, MCF7); experiment: ERX-315 in therapy resistant BC xenografts (Y537S ERα mutant ZR75, MCF7); assay type: in vivo, mouse
[10] = system: ovarian cancer cells and breast cancer cells; experiment: ERX-315 in cancer cell lines; assay type: cell-based
[11] = ERX-315 in syngeneic D2A1 tumor model, organ evaluation; assay type: in vivo, mice; conditions: syngeneic D2A1 tumors

C/C=C(/C)C(=O)O[C@H]1C(C)=C2[C@H]([C@@H]1OC(=O)CCCCCCC)[C@@](C)(OC(C)=O)C[C@H](OC(=O)CCC)[C@@]1(O)[C@H]2OC(=O)[C@@]1(C)O [thapsigargin, reference compound]
inducibility of UPR genes in LIPA KO cells [1]: preserved

tunicamycin [reference compound]
inducibility of UPR genes in LIPA KO cells [1]: preserved

C[C@]12CC[C@@H]3c4ccc(O)cc4C[C@@H](CCCCCCCCC[S+]([O-])CCCC(F)(F)C(F)(F)F)[C@H]3[C@@H]1CC[C@@H]2O (stereo partly drawn) [fulvestrant]
interaction with ERα LBD [2]: interact with ERG LBD

O=C(Oc1nsnc1N1CCCCC1)N1CCCCC1 [Lalistat 2]
induction of ER stress or cell death in TNBC [3]: does not induce ER stress or cell death in TNBC | lipase function (other lipases) in LIPA-KO cells ([4]; LIPA-KO cells): lack of inhibitory activity on lipase function | lipase activity of LIPA ([4]; SUM-159 cells, 30 μM): attenuated lipase activity

CC(C)COc1cc(C(N)=O)ccc1NC(=O)c1ccc(NC(=O)c2ccc([N+](=O)[O-])c(OCCO)c2)c(OCC(C)C)c1 [ERX-11, reference compound]
IC50 [5]: 200 to 500 nM | interaction with ERα LBD [2]: interact with ERG LBD | IC50 ([6]; MTT, SUM-159 and MDA-MB-231, read-out: IC50 against TNBC cells): > 10000 nM | anti-tumor activity in TNBC cells ([6]; TNBC cells (lack expression of ERα)): did not show anti-tumor activity | oral bioavailability [7]: orally bioavailable | IC50 [8]: 200 to 500 nM

CC(C)COc1cc(C(=O)Nc2ccc(C(=O)N[C@H]3CC[C@H](C(=O)Nc4cnc5ccccc5c4)CC3)cc2OCC(C)C)ccc1NC(=O)c1ccc(F)c(OCCO)c1 [ERX-315]
Ki67 proliferation indices of tumors ([9]; histologic evaluation): dramatically decreased K167 proliferation indices | activity against therapy resistant BC xenografts ([9]; oral, captisol formulation, listed as TK315): decreased the growth and tumor weight; also recorded: potent activity | mouse liver or body weight ([9]; oral, listed as TK315): No change in body weight; also recorded: no effect on mouse liver or body weight | effectiveness in cell culture models of cancer ([10]; FIG. 17): effective in each cell line tested | IC50 ([10]; read-out: IC50 against ovarian cancer cells and breast cancer cells): 10 to 50 nM | immunogenicity, immune infiltrates in spleen, lymph nodes, kidney, liver [11]: not immunogenic
